Target: CDK2/Cyclin E1 (Homo sapiens, UniProt P24941)
Test: CDK2/Cyclin E1 Caliper LabChip EZ Reader mobility shift assay
Type: biochemical
Set-up: purchased Eurofins 14-475
Conditions: read-out: Caliper Assay (CDK2/CCNE1): IC50
Outline: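 Mobility-shift kinase assay: compound titrations preincubated 30 min with enzyme and ATP, reaction started with 5-FAM-QSPKKG-CONH2 peptide. Final 2.5 nM CDK2/Cyclin E1, 100 μM ATP, 1.5 μM peptide, HEPES pH 7.5; stopped with EDTA after 100 min. IC50 from four-parameter fit of normalized conversion ratio.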

| SMILES | IC50 |
| --- | --- |
| CNC(=O)[C@@H](NC(=O)[C@H]1CN(C(=O)c2cnn(Cc3ccccc3)c2)CC12CN(C(=O)[C@H]1CC1(C)C)C2)[C@@H](C)OCC1CCOCC1 [I-119B] | 1000 to 10000 nM |
| CNC(=O)[C@@H](NC(=O)[C@H]1CN(C(=O)c2sc(C(C)C)nc2C)CC12CN(C(=O)[C@H]1CC1(C)C)C2)[C@@H](C)OCC1CCCCC1 [I-227B] | > 10000 nM |
| Cc1ccc(CNC(=O)[C@@H]2CN(C(=O)c3cnn(Cc4ccccc4)c3)CC23CN(C(=O)C(C)(C)C2CC2)C3)nn1 [I-387, (S)-6-(1-benzyl-1H-pyrazole-4-carbonyl)-2-(2-cyclopropyl-2-methylpropanoyl)-N-((6-methylpyridazin-3-yl)methyl)-2,6-diazaspiro[3.4]octane-8-carboxamide] | > 10000 nM |
| CC1(C)C[C@@H]1C(=O)N1CC2(CN(C(=O)c3cnn(Cc4ccccc4)c3)C[C@H]2C(=O)N[C@H]2CCN(c3ccccc3)C2)C1 [I-206] | 100 to 1000 nM |
| CNC(=O)[C@@H](NC(=O)[C@H]1CN(C(=O)c2cnn(Cc3ccccc3)c2)CC12CN(C(=O)CC1(COC)CC1)C2)[C@@H](C)OCc1ccccc1 [I-82B] | > 10000 nM |
| CC1(C)C[C@@H]1C(=O)N1CC2(CN(C(=O)c3cncs3)C[C@H]2C(=O)NC(c2cccc(C3CCCCC3)n2)C2CCOC2)C1 (stereo partly drawn) [I-493] | 10 to 100 nM |
| C[C@@H](OCC12CCC(CC1)OC2)[C@H](NC(=O)[C@@H]1CN(C(=O)c2cnco2)CC12CN(C(=O)C(C)(C)C1CC1)C2)C(C)(C)O [I-448] | 1000 to 10000 nM |
| CNC(=O)[C@@H](NC(=O)[C@H]1CN(C(=O)c2cnn(Cc3ccccc3)c2)CC12CN(C(=O)[C@H]1CC1(C)C)C2)[C@@H](C)OCC1CCC1 [I-144B] | 1000 to 10000 nM |
| COC[C@H]1CCCN(C(=O)[C@@H](NC(=O)[C@@H]2CN(C(=O)c3cncs3)CC23CN(C(=O)[C@H]2CC2(C)C)C3)[C@@H](C)OCc2ccc(OC(F)(F)F)cc2)C1 [I-320] | ≤ 10 nM |
| CNC(=O)[C@@H](NC(=O)[C@@H]1CN(C(=O)c2cnc[nH]2)CC12CN(C(=O)[C@H]1CC1(C)C)C2)[C@@H](C)OCc1ccccc1 [I-44A] | > 10000 nM |
| CC1(C)C[C@@H]1C(=O)N1CC2(CN(C(=O)c3cnn(Cc4ccccc4)c3)C[C@H]2C(=O)NCc2nnc[nH]2)C1 [I-191A] | > 10000 nM |
| CNC(=O)[C@@H](NC(=O)[C@@H]1CN(C(=O)c2cnn(Cc3ccccc3)c2)CC12CN(C(=O)[C@H]1CC1(C)C)C2)C(C)(C)S(=O)(=O)Cc1ccccc1 [I-199, (S)-6-(1-benzyl-1H-pyrazole-4-carbonyl)-N—((R)-3-(benzylsulfonyl)-3-methyl-1-(methylamino)-1-oxobutan-2-yl)-2-((S)-2,2-dimethylcyclopropane-1-carbonyl)-2,6-diazaspiro[3.4]octane-8-carboxamide] | 100 to 1000 nM |
| COCCNC(=O)[C@H]1CN(C(=O)c2cnn(Cc3ccccc3)c2)CC12CN(C(=O)[C@H]1CC1(C)C)C2 [I-122B] | > 10000 nM |
| CN1CC[C@@H](NC(=O)[C@@H]2CN(C(=O)c3cnn(Cc4ccccc4)c3)CC23CN(C(=O)[C@H]2CC2(C)C)C3)C1=O [I-258] | > 10000 nM |
| CC1(C)C[C@@H]1C(=O)N1CC2(CN(C(=O)c3cnn(Cc4ccccc4)c3)C[C@H]2C(=O)NCc2nc3ccccc3o2)C1 [I-230] | 1000 to 10000 nM |
| CNC(=O)[C@@H](NC(=O)[C@@H]1CN(C(=O)c2cn[nH]c2)CC12CN(C(=O)[C@H]1CC1(C)C)C2)[C@@H](C)OCC1CCCCC1 [I-66A, (S)—N-((2S,3R)-3-(cyclohexylmethoxy)-1-(methylamino)-1-oxobutan-2-yl)-2-((S)-2,2-dimethylcyclopropane-1-carbonyl)-6-(1H-pyrazole-4-carbonyl)-2,6-diazaspiro[3.4]octane-8-carboxamide] | 10 to 100 nM |
| CNC(=O)[C@@H](NC(=O)[C@@H]1CN(C(=O)c2cncs2)CC12CN(C(=O)[C@H]1CC1(C)C)C2)[C@@H](C)OC1C2CC3CC(C2)CC1C3 (stereo partly drawn) [I-463] | 10 to 100 nM |
| C[C@@H](OCC12CCC(CC1)OC2)[C@H](NC(=O)[C@@H]1CN(C(=O)c2sc(Cl)nc2Cl)CC12CN(C(=O)C(C)(C)C1CC1)C2)C(C)(C)O [I-471] | 1000 to 10000 nM |
| CNC(=O)[C@@H](NC(=O)[C@H]1CN(C(=O)c2cnn(Cc3ccccc3)c2)CC12CN(C(=O)CC1CC1)C2)[C@@H](C)OCC1CCCCC1 [I-56B] | 1000 to 10000 nM |
| CNC(=O)[C@@H](NC(=O)[C@@H]1CN(C(=O)c2cnn(Cc3ccccc3)c2)CC12CN(C(=O)[C@H]1CC1(C)C)C2)[C@@H](C)OCc1ccncc1 [I-244] | 1000 to 10000 nM |

The remaining lines, values ahead:

| IC50 | SMILES |
| --- | --- |
| 1000 to 10000 nM | CC(C)(O)C(NC(=O)[C@@H]1CN(C(=O)c2cncs2)CC12CN(C(=O)[C@H]1CC1(C)C)C2)c1cccc(C2CCOCC2)n1 (stereo partly drawn) [I-423] |
| 100 to 1000 nM | CNC(=O)[C@@H](NC(=O)[C@H]1CN(C(=O)c2cnn(Cc3ccccc3)c2)CC12CN(C(=O)[C@H]1CC1(C)C)C2)[C@@H](C)OCC1CCCCC1 [I-123B] |
| > 10000 nM | CNC(=O)[C@@H](NC(=O)[C@@H]1CN(C(=O)c2nccs2)CC12CN(C(=O)[C@H]1CC1(C)C)C2)[C@@H](C)OCC1CCCCC1 [I-169] |
| 10 to 100 nM | CNC(=O)[C@@H](NC(=O)[C@@H]1CN(C(=O)c2cnn(Cc3ccccc3)c2)CC12CN(C(=O)[C@H]1CC1(C)C)C2)[C@@H](C)OCC1CCC1 [I-144A] |
| ≤ 10 nM | C[C@@H](OCC1CCC(F)(F)CC1)[C@@H](COC1CCOCC1)NC(=O)[C@@H]1CN(C(=O)c2cncs2)CC12CN(C(=O)[C@H]1CC1(C)C)C2 [I-314] |
| > 10000 nM | Cc1ccc(CNC(=O)[C@@H]2CN(C(=O)c3cnn(Cc4ccccc4)c3)CC23CN(C(=O)[C@H]2CC2(C)C)C3)cn1 [I-364] |
| 1000 to 10000 nM | CNC(=O)[C@@H](NC(=O)[C@@H]1CN(C(=O)c2cncs2)CC12CN(CC1COC1)C2)[C@@H](C)OCC12CCC(CC1)OC2 [I-348] |
| 100 to 1000 nM | CNC(=O)C(NC(=O)[C@@H]1CN(C(=O)c2cncs2)CC12CN(C(=O)[C@H]1CC1(C)C)C2)c1cccc(N2CC3(CC(C(F)(F)F)C3)C2)n1 (stereo partly drawn) [I-430] |
| 100 to 1000 nM | CNC(=O)[C@@H](NC(=O)[C@@H]1CN(C(=O)c2nncs2)CC12CN(C(=O)[C@H]1CC1(C)C)C2)[C@@H](C)OCC1CCCCC1 [I-246] |
| 1000 to 10000 nM | Cc1n[nH]c(C(=O)N2C[C@@H](C(=O)N[C@H](C(=O)N3CCCCC3)[C@@H](C)OCC3CCCCC3)C3(C2)CN(C(=O)[C@H]2CC2(C)C)C3)n1 [I-241] |
| ≤ 10 nM | C[C@@H](OCC1CCCCC1)[C@H](NC(=O)[C@@H]1CN(C(=O)c2cnn(Cc3ccccc3)c2)CC12CN(C(=O)[C@H]1CC1(C)C)C2)C(=O)N1CCC(c2cnc[nH]2)CC1 [I-438] |
| 1000 to 10000 nM | CC1(C)C[C@@H]1C(=O)N1CC2(CN(C(=O)c3cnn(Cc4ccccc4)c3)C[C@H]2C(=O)Nc2cccc(Cc3ccccc3)c2)C1 [I-75A] |
| > 10000 nM | Cc1ccc(CNC(=O)[C@H]2CN(C(=O)c3cnn(Cc4ccccc4)c3)CC23CN(C(=O)[C@H]2CC2(C)C)C3)nn1 [I-381] |
| > 10000 nM | CNC(=O)[C@@H](NC(=O)[C@H]1CN(C(=O)c2cccnc2)CC12CN(C(=O)[C@H]1CC1(C)C)C2)[C@@H](C)OCc1ccccc1 [I-42B] |
| > 10000 nM | CNC(=O)[C@@H](NC(=O)[C@H]1CN(Cc2cnco2)CC12CN(C(=O)[C@H]1CC1(C)C)C2)[C@@H](C)OCc1ccccc1 [I-78B] |
| > 10000 nM | CNC(=O)[C@@H](NC(=O)[C@@H]1CN(C(=O)c2cnn(Cc3ccccc3)c2)CC12CN(C(=O)C1(CC3CC3)CC1)C2)[C@@H](C)OCc1ccccc1 [I-116A] |
| 1000 to 10000 nM | CNC(=O)[C@H](CCCC1CCCCC1)NC(=O)[C@H]1CN(C(=O)c2cnn(Cc3ccccc3)c2)CC12CN(C(=O)[C@H]1CC1(C)C)C2 [I-155B] |
| > 10000 nM | CC1(C)C[C@@H]1C(=O)N1CC2(CN(C(=O)c3cnn(Cc4ccccc4)c3)C[C@@H]2C(=O)N[C@H]2C[C@@H]2c2cccc(Cl)c2)C1 [I-140B] |
| 100 to 1000 nM | CNC(=O)[C@@H](NC(=O)[C@@H]1CN(C(=O)c2cnn(Cc3ccccc3)c2)CC12CN(C(=O)[C@H]1CC1(C)C)C2)[C@@H](C)OCc1cccc(O)c1 [I-262] |
| 100 to 1000 nM | CNC(=O)[C@@H](NC(=O)[C@@H]1CN(C(=O)c2cnn(Cc3ccccc3)c2)CC12CN(C(=O)C1(C)CC1)C2)[C@@H](C)OCc1ccccc1 [I-67A, (S)-6-(1-benzyl-1H-pyrazole-4-carbonyl)-N-((2S,3R)-3-(benzyloxy)-1-(methylamino)-1-oxobutan-2-yl)-2-(1-methylcyclopropane-1-carbonyl)-2,6-diazaspiro[3.4]octane-8-carboxamide] |
| ≤ 10 nM | C[C@@H](OCc1ccccc1)[C@H](NC(=O)[C@@H]1CN(C(=O)c2cnn(Cc3ccccc3)c2)CC12CN(C(=O)[C@H]1CC1(C)C)C2)C(=O)N(C)C [I-409] |
| > 10000 nM | CC1(C)C[C@@H]1C(=O)N1CC2(CN(C(=O)c3cnn(Cc4ccccc4)c3)C[C@@H]2C(=O)N[C@@H]2CC[C@@H]2O)C1 [I-201A] |
| 10 to 100 nM | C[C@@H](OCC1CCCCC1)[C@H](NC(=O)[C@@H]1CN(C(=O)c2cnn(Cc3ccccc3)c2)CC12CN(C(=O)[C@H]1CC1(C)C)C2)C(=O)N1CCC[C@@H]1CN [I-238] |
| > 10000 nM | CC1(C)C[C@@H]1C(=O)N1CC2(CN(C(=O)c3cnn(Cc4ccccc4)c3)C[C@H]2C(=O)NCc2ccc(O)nn2)C1 [I-400] |
| 100 to 1000 nM | CC1(C)C[C@@H]1C(=O)N1CC2(CN(C(=O)c3cnn(Cc4ccccc4)c3)C[C@H]2C(=O)Nc2ccc(Cc3ccccc3)nc2)C1 [I-139, (S)-6-(1-benzyl-1H-pyrazole-4-carbonyl)-N-(6-benzylpyridin-3-yl)-2-((S)-2,2-dimethylcyclopropane-1-carbonyl)-2,6-diazaspiro[3.4]octane-8-carboxamide] |
| 100 to 1000 nM | CC1(C)C[C@@H]1C(=O)N1CC2(CN(C(=O)c3cncs3)C[C@H]2C(=O)NC(CO)c2cccc(C3CCC(F)(F)CC3)n2)C1 (stereo partly drawn) [I-419] |
| 10 to 100 nM | C[C@@H](OCC1CCCCC1)[C@@H](CO)NC(=O)[C@@H]1CN(C(=O)c2cncs2)CC12CN(C(=O)[C@H]1CC1(C)C)C2 [I-307] |
| > 10000 nM | CNC(=O)[C@@H](NC(=O)[C@@H]1CN(C(=O)c2cnn(Cc3ccccc3)c2)CC12CN(C(=O)C1(c3ccc(C(C)(C)C)cc3)CC1)C2)[C@@H](C)OCc1ccccc1 [I-80A] |

Reference: patent US20240174680A1, “CDK2 INHIBITORS AND METHODS OF USING THE SAME” (Cedilla Therapeutics, Inc., priority 2021, published 2024)
